{
  "source": "patent US11440935B2",
  "about": "“3″,5″-dimethoxybenzoyl-3′-amino-3′-deoxy adenosine-5′-triphosphates and pharmaceutical uses thereof” (Danmir Therapeutics, LLC, priority 2018, dated 2022)",
  "key": {"[1]": {"test_system": "P2X3 receptor", "conditions": "guinea pig airway-specific primary nodose ganglion cell afferents; cited from earlier work"}, "[2]": {"test_system": "conscious guinea-pigs", "assay": "Aerosolized ATP-induced cough in conscious free moving guinea-pigs", "format": "in vivo, guinea-pig", "method": "This study was performed in 6 guinea-pigs. The housing room was constantly ventilated, and the temperature kept at ˜23° C. After quarantine, the animals were individually placed in a whole-body, unrestrained, plethysmograph chamber (model PLY3215, Buxco Electronics Inc., Troy, N.Y.) for ˜40 min once a day for two continuous days before the cough test. All GPs were weighed before the cough study.\nATP was purchased from Sigma-Aldrich (Cat #A2383-10G). Solutions of ATP used for aerosol challenge were freshly made just prior to use by dissolving the powder in 0.9% saline (NaCl) solution. Solutions of DT-0111 used for aerosol administration were freshly made by dissolving the powder in 0.9% saline (NaCl) solution.\nA plethysmograph chamber was continuously flushed with normoxic (21% O2 and 79% N2) room air at 2 L/min. The same amount of air was drawn through the chamber base outlets using a Buxco bias flow regulator to keep the chamber bias flow balanced. ATP or DT solution was aerosolized by using a vibrating mesh nebulizer (Ireland Ltd., Galway Ireland, AG-AL1100). The output rate of delivered aerosol was around 0.5 ml/min with droplet size (volume median diameter) at 2.5-4.0 μm (manufacture's indications). The aerosol was mixed with airflow and directly delivered into the plethysmograph chamber. The latter was placed in a standard chemical fume hood (size: 3×6 ft) installed in a standard laboratory.\nA guinea-pig was placed in the chamber again after adaptation. Following stabilization, #1 guinea-pig was exposed to aerosolized ATP at 6 mg/ml, 24 mg/ml, and then 48 mg/ml for 5 min with an interval of 30 min. The remaining animals (#2-#6 guinea-pigs) were exposed to aerosolized ATP at 48 mg/ml for 5 min. Approximately 140 min later, the same dose of ATP was repeated immediately after DT-0111 aerosol inhalation (12 mg/ml for 5 min). […] The cough sound and behavioral activities were continuously monitored and recorded before (for 3 min), during 5 min aerosol delivery, and 20 min after cessation of the delivery.\nSetup of the cough recording system. The top of the plethysmograph chamber was connected with a plastic tube that was attached by the nebulizer. Normoxic air driven by the nebulizer controller was flowed into the chamber and sucked out by the bias flow regulator with the in and out flow volume balanced (2.0 L/min). To detect cough, a microphone system was mounted in the roof of the chamber to record sound; a video camera was placed outside of the chamber to monitor animal body posture; and a Buxco pneumotachograph (differential pressure transducer) attached to the chamber to record airflow. All signals generated by video camera, microphone, and pressure transducer were amplified and recorded continuously by PowerLab/8 sp (model ML 785; ADInstruments Inc., Colorado Springs, Colo.) and a computer with the LabChart Pro 7 software.\nCough count. A typical cough response, as reported before (Girard et al., Eur Respir J, 1995; Blasko et al., American Journal of Advanced Drug Delivery. 5:131-138, 2017; Corboz et al., Journal of Pharmacology and Experimental Therapeutics. 363: 348-357, 2017), was defined by the simultaneous appearance of: 1) a transient and great change in the airflow (a rapid inspiration followed by rapid expiration); 2) a typical cough sound with the peak power density at 1-2 kHz in frequency spectrum (sneeze at 3.5-6.5 kHz); and 3) animal body (head) posture and movement."}, "[3]": {"target": "T1, P2X2/3 receptor (Rattus norvegicus, UniProt P49653+P49654)", "T1 construct": "Single neurons were enzymatically isolated from rats' nodose ganglia; from tissue; host or cells: dissociated nodose ganglion neurons of 17-day-old male Sprague-Dawley rats", "T1 sequence (P49653 1-472)": "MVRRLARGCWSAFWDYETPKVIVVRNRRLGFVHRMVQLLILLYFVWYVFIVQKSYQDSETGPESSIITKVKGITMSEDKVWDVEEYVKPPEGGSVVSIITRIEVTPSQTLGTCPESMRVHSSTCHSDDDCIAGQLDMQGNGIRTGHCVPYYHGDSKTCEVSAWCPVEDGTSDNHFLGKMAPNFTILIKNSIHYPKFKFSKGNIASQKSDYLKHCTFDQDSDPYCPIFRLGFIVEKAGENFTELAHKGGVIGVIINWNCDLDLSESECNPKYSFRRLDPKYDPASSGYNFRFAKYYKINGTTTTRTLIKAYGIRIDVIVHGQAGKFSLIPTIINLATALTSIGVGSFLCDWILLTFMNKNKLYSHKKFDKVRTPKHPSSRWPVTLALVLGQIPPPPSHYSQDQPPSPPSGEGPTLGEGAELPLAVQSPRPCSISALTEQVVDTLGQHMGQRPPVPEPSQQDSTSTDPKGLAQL", "T1 sequence (P49654 1-397)": "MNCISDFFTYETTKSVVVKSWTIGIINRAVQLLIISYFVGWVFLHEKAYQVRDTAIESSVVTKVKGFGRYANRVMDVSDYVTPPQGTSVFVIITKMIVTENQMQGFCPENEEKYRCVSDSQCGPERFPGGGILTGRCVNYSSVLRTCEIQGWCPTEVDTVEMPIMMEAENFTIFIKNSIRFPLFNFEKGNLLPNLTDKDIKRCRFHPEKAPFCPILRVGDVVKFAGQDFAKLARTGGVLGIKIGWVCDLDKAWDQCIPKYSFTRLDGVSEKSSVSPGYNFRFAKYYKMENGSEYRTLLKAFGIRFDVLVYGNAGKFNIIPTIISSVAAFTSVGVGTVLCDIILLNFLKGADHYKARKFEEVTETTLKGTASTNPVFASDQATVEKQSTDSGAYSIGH", "assay": "Nodose ganglion neuron assay of P2X2/3 receptor antagonism (whole-cell voltage-clamp)", "format": "cell-based", "conditions": "rat nodose ganglionic cell; for antagonism of ATP-induced inward current: ATP 10 μM, whole-cell voltage clamp", "method": "Single neurons were enzymatically isolated from rats' nodose ganglia as described by Zhong et al., Br J Pharmacol 1998; 125, 771-781. Briefly, 17- day old male Sprague-Dawley rats were killed by CO2 inhalation. Ganglia were rapidly dissected and placed in Leibovitz's L-15 medium (Life Technologies, Paisley, UK). Ganglia were desheathed, cut and incubated in 4 ml Ca^2+/Mg^2+-free Hanks' balanced salt solution with 10 mm Hepes buffer (pH 7.0) (HBSS) (Life Technologies) containing 1.5 mg ml-1 collagenase (Class-II; Worthington Biochemical Corporation, Reading, UK) and 6 mg ml-1 bovine serum albumin (Sigma) at 37° C. for 40 min. Ganglia were then incubated with 4 ml HBSS containing 1 mg ml-1 trypsin (Sigma) at 37° C. for 20 min. The solution was replaced with 3 ml of growth medium comprising L-15 medium supplemented with 10% bovine serum, 50 ng ml-1 nerve growth factor, 0.2% NaHCO3, 5.5 mg ml-1 glucose, 200 IU ml-1 penicillin and 200 μg ml-1 streptomycin. The ganglia were dissociated into single neurons by gentle trituration. The cells were then centrifuged at 160 g for 5 min, resuspended in 1 ml of growth medium, and plated onto 35 mm Petri dishes coated with 10 μg ml-1 laminin (Sigma). Cells were maintained at 37° C. in a humidified atmosphere containing 5% CO2 and used between 2 and 48 hours after plating.\nWhole-cell voltage-clamp recordings were performed at room temperature using an Axopatch 200B amplifier (Axon Instruments, Union City, Calif., USA). Membrane potential was held at […]. The external solution contained (mM): 154 NaCl, 4.7 KCl, 1.2 MgCl2, 2.5 CaCl2), 10 Hepes, 5.6 glucose, and the pH was adjusted to 7.4 using NaOH. Recording electrodes (resistance […]) were filled with an internal solution which contained (mm): 56 citric acid, 3 MgCl2, 10 CsCl, 10 NaCl, […], 0.1 EGTA, 10 tetraethylammonium chloride, and the pH was adjusted to 7.2 using CsOH (total Cs+concentration 170 mm). […] Solution exchange measured by changes in open tip current was complete in 200 ms; however, complete exchange of solution around an intact cell was slower (<1 s). […]"}, "[4]": {"test_system": "P2X3-P2X2/3", "conditions": "experimental animals; cited from earlier work"}, "[5]": {"conditions": "ATP (48 mg/ml) aerosol 5 min alone, per guinea-pig"}},
  "note": "“And” between values parts separate entries of the source, which are not always exact repeats. Equal values may be shown once. “Also recorded” adds a separate entry of the source. Where a name gives a salt, the structure may show the parent alone.",
  "data": [
    {"compound": "COc1cc(C(C)C)c(Oc2cnc(N)nc2N)cc1I", "note": "[AF-353]", "values": [
      {"measurement": "effect on TRPV4 receptor activation effects (Aδ fiber stimulation and coughing)", "setting": "[1]", "value": "markedly attenuated"}
    ]},
    {"compound": "Nc1ncnc2c1ncn2[C@@H]1O[C@H](COP(=O)(O)OP(=O)(O)OP(=O)(O)O)[C@@H](O)[C@H]1O", "note": "[ATP, adenosine 5′-triphosphate]", "values": [
      {"measurement": "cough evoked by aerosolized ATP", "setting": "[2]; ATP 48 mg/ml, 5 min exposure, all animals", "value": "evoked significant coughs"},
      {"measurement": "Bout Cough B1# (cough number in first bout)", "setting": "[2]; [5]", "value": "24 and 14 and 18 and 19 and 21"},
      {"measurement": "Individual Cough", "setting": "[2]; [5]", "value": "3 and 0 (2×) and 1 (3×)"},
      {"measurement": "Subtotal coughs", "setting": "[2]; ATP (48 mg/ml) aerosol 5 min alone, per guinea-pig and Mean", "value": "27 and 24 and 35 and 19 and 22"}
    ]},
    {"compound": "COc1cc(OC)cc(C(=O)NC2C(O)[C@H](n3cnc4c(N)ncnc43)O[C@@H]2COP(=O)(O)OP(=O)(O)OP(=O)(O)O)c1", "note": "(stereo partly drawn) [Compound 11, 3″,5″-Dimethoxybenzoyl-3′-amino-3′-deoxyadenosine-5′-triphosphate Triethyl Ammonium Salt]", "values": [
      {"measurement": "antagonism of ATP-induced inward current", "setting": "[3]; listed as 3″,5″-dimethoxybenzoyl-3′-amino-3′-deoxyadenosine-5′-triphosphate triethylammoni, Ammonium Salt", "value": "substantially abrogated"},
      {"measurement": "antagonism of ATP-induced inward current", "setting": "[3]; listed as compound 11, Ammonium Salt", "value": "substantially abrogated; also recorded: complete antagonism at the higher concentrations"},
      {"measurement": "reversibility of antagonism on washout", "setting": "[3]; after washing out the antagonist", "value": "reversible"}
    ]},
    {"compound": "O=C(O)c1cc(C(=O)O)c(C(=O)N(Cc2cccc(Oc3ccccc3)c2)[C@H]2CCCc3ccccc32)cc1C(=O)O", "note": "[Compound A-317491]", "values": [
      {"measurement": "effect on cyclophosphamide (CYP)-induced cystitis", "setting": "[4]", "value": "inhibit cyclophosphamide (CYP)-induced cystitis"}
    ]}
  ]
}
